Results published in patent US11000033B2, “Ketone or oxime compound, and herbicide” (NISSAN CHEMICAL CORPORATION, priority 2014, dated 2021).

Assays:
Type in all cases: in vivo
Avena fatua [1] = assay: Test Example 4: herbicidal effect by soil treatment (symbol I); details: 320 g/ha
How it was run: (§1)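 Seeds were sown in sterilized diluvial soil, covered with about 1.5 cm of soil, and the soil surface was sprayed with a water-diluted emulsion of the compound at a predetermined rate. Plants grew in a greenhouse at 25° C. to 30° C.; effects were scored visually 3 weeks after application.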

Avena fatua [2] = assay: Test Example 5: herbicidal effect by foliage application, plastic box (symbol I); details: 320 g/ha, 3 weeks after application
How it was run: (§2)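 Effect is rated 3 weeks after a foliar spray of water-diluted emulsion concentrate at a predetermined herbicide amount. Plants had grown 14 days in a 25° C. to 30° C. greenhouse from seed in sterilized diluvial soil.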

Abutilon theophrasti = assay: Test Example 5: herbicidal effect by foliage application, plastic box (symbol M); details: 320 g/ha, 3 weeks after application
How it was run: as §2

Setaria viridis [3] = assay: Test Example 4: herbicidal effect by soil treatment (symbol G); details: 320 g/ha
How it was run: as §1

Chenopodium album = assay: Test Example 5: herbicidal effect by foliage application, plastic box (symbol O); details: 320 g/ha, 3 weeks after application
How it was run: as §2

Apera spica-venti [4] = assay: Test Example 5: herbicidal effect by foliage application, plastic box (symbol L); details: 320 g/ha, 3 weeks after application
How it was run: as §2

Veronica persica [5] = assay: Test Example 5: herbicidal effect by foliage application, plastic box (symbol R); details: 320 g/ha, 3 weeks after application
How it was run: as §2

rapeseed [6] = assay: Test Example 5: effect on crop by foliage application, plastic box (symbol g); details: 320 g/ha, 3 weeks after application
How it was run: (§3)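 Sterilized diluvial soil, plastic box (21 × 13 × 7 cm); spot sowing, ~1.5 cm soil cover; greenhouse 25–30° C.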

Digitaria ciliaris = assay: Test Example 5: herbicidal effect by foliage application, plastic box (symbol F); details: 320 g/ha, 3 weeks after application
How it was run: as §2

Veronica persica [7] = assay: Test Example 4: herbicidal effect by soil treatment (symbol R); details: 320 g/ha
How it was run: as §1

Setaria viridis [8] = assay: Test Example 5: herbicidal effect by foliage application, plastic box (symbol G); details: 320 g/ha, 3 weeks after application
How it was run: as §2

soybean = assay: Test Example 5: effect on crop by foliage application, plastic box (symbol d); details: 320 g/ha, 3 weeks after application
How it was run: as §3

Monochoria vaginalis = assay: Test Example 2: herbicidal activity, application during weed generation in submerged conditions (symbol C); details: Table 23; application herbicide amount 320 g/ha; grade 0-5 by criteria of Test Example 1
How it was run: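 Paddy pot test, submerged (4 cm water), alluvial soil, mixed sowing; greenhouse 25–30° C. Emulsion formulation diluted to predetermined rate, applied onto floodwater at 1–2 leaf stage. Visual herbicidal rating at 3 wk post-treatment.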

rapeseed [9] = assay: Test Example 4: effect on crop by soil treatment (symbol g); details: 320 g/ha
How it was run: (§4)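 Greenhouse culture at 25° C. to 30° C. followed sowing of seed in spots on sterilized diluvial soil with a soil cover close to 1.5 cm thick.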

[10] = tested on: Echinochloa crus-galli var. crus-galli; assay: Test Example 5: herbicidal effect by foliage application, plastic box (symbol H); details: 320 g/ha, 3 weeks after application
How it was run: as §2

Apera spica-venti [11] = assay: Test Example 4: herbicidal effect by soil treatment (symbol L); details: 320 g/ha
How it was run: as §1

Scirpus juncoides = assay: Test Example 1: herbicidal activity, application before weed generation in submerged conditions (symbol B); details: application herbicide amount 320 g/ha
How it was run: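 Compound emulsion was diluted to a set herbicide amount and applied to the water surface on the sowing day, into submerged (4 cm) alluvial-soil pots sown with mixed weed seeds and transplanted 2.5-leaf rice. Pots were held in a 25–30 °C greenhouse, and weeds were scored 0–5 by herbicidal ratio after 3 weeks.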

rice = assay: Test Example 4: effect on crop by soil treatment (symbol b); details: 320 g/ha
How it was run: as §4

SMILES | I: Avena fatua, herbicidal effect grade (Avena fatua [1]) | I: Avena fatua, herbicidal effect (criteria 0-5) (Avena fatua [2]) | M: Abutilon theophrasti, herbicidal effect (criteria 0-5) (Abutilon theophrasti) | G: Setaria viridis, herbicidal effect grade (Setaria viridis [3]) | O: Chenopodium album, herbicidal effect (criteria 0-5) (Chenopodium album) | L: Apera spica-venti, herbicidal effect (criteria 0-5) (Apera spica-venti [4]) | R: Veronica persica, herbicidal effect (criteria 0-5) (Veronica persica [5]) | g: rapeseed, effect on crop (criteria 0-5) (rapeseed [6]) | F: Digitaria ciliaris, herbicidal effect (criteria 0-5) (Digitaria ciliaris) | R: Veronica persica, herbicidal effect grade (Veronica persica [7]) | G: Setaria viridis, herbicidal effect (criteria 0-5) (Setaria viridis [8]) | d: soybean, effect on crop (criteria 0-5) (soybean) | Herbicidal effect grade, C: Monochoria vaginalis (Monochoria vaginalis) | g: rapeseed, effect grade on crop (rapeseed [9]) | H: Echinochloa crus-galli var. crus-galli, herbicidal effect (criteria 0-5) [10] | L: Apera spica-venti, herbicidal effect grade (Apera spica-venti [11]) | Herbicidal effect grade, B: Scirpus juncoides (Scirpus juncoides) | b: directly sowed rice plant, effect grade on crop (rice)
CON=C(C)CC1CC(OC(=O)COc2ccc(Br)cc2)=C(c2c(C)cc(C)cc2C)C1=O (stereo not drawn) [1-081] | 3 (Herbicidal ratio of 40% or higher and lower than 70%) | 5 (Herbicidal ratio of 90% or more (almost completely withered)) | 4 (Herbicidal ratio of 70% or higher and lower than 90%) | 5 (Herbicidal ratio of 90% or more (almost completely withered)) | 3 (Herbicidal ratio of 40% or higher and lower than 70%) | 5 (Herbicidal ratio of 90% or more (almost completely withered)) | 0 (Herbicidal ratio of 5% or lower (almost no effect)) | 5 (Herbicidal ratio of 90% or more (almost completely withered)) | 5 (Herbicidal ratio of 90% or more (almost completely withered)) | 0 (Herbicidal ratio of 5% or lower (almost no effect)) | 5 (Herbicidal ratio of 90% or more (almost completely withered)) | 5 (Herbicidal ratio of 90% or more (almost completely withered)) | 3 (Herbicidal ratio of 40% or higher and lower than 70%) | 4 (Herbicidal ratio of 70% or higher and lower than 90%) | 5 (Herbicidal ratio of 90% or more (almost completely withered)) | 5 (Herbicidal ratio of 90% or more (almost completely withered)) | 5 (Herbicidal ratio of 90% or more (almost completely withered)) | 5 (Herbicidal ratio of 90% or more (almost completely withered))
CON=C(C)CC1CC(OC(=O)COc2ccc(I)cc2)=C(c2c(C)cc(C)cc2C)C1=O (stereo not drawn) [1-082] | 3 (Herbicidal ratio of 40% or higher and lower than 70%) | 5 (Herbicidal ratio of 90% or more (almost completely withered)) | 4 (Herbicidal ratio of 70% or higher and lower than 90%) | 5 (Herbicidal ratio of 90% or more (almost completely withered)) | 1 (Herbicidal ratio of 5% or higher and lower than 20%) | 5 (Herbicidal ratio of 90% or more (almost completely withered)) | 0 (Herbicidal ratio of 5% or lower (almost no effect)) | 4 (Herbicidal ratio of 70% or higher and lower than 90%) | 5 (Herbicidal ratio of 90% or more (almost completely withered)) | 0 (Herbicidal ratio of 5% or lower (almost no effect)) | 5 (Herbicidal ratio of 90% or more (almost completely withered)) | 4 (Herbicidal ratio of 70% or higher and lower than 90%) | 3 (Herbicidal ratio of 40% or higher and lower than 70%) | 4 (Herbicidal ratio of 70% or higher and lower than 90%) | 5 (Herbicidal ratio of 90% or more (almost completely withered)) | 5 (Herbicidal ratio of 90% or more (almost completely withered)) | 5 (Herbicidal ratio of 90% or more (almost completely withered)) | 5 (Herbicidal ratio of 90% or more (almost completely withered))
CON=C(C)CC1CC(OC(=O)COc2ccc3ccccc3c2)=C(c2c(C)cc(C)cc2C)C1=O (stereo not drawn) [1-083] | 3 (Herbicidal ratio of 40% or higher and lower than 70%) | 5 (Herbicidal ratio of 90% or more (almost completely withered)) | 4 (Herbicidal ratio of 70% or higher and lower than 90%) | 5 (Herbicidal ratio of 90% or more (almost completely withered)) | 0 (Herbicidal ratio of 5% or lower (almost no effect)) | 5 (Herbicidal ratio of 90% or more (almost completely withered)) | 0 (Herbicidal ratio of 5% or lower (almost no effect)) | 4 (Herbicidal ratio of 70% or higher and lower than 90%) | 5 (Herbicidal ratio of 90% or more (almost completely withered)) | 0 (Herbicidal ratio of 5% or lower (almost no effect)) | 5 (Herbicidal ratio of 90% or more (almost completely withered)) | 4 (Herbicidal ratio of 70% or higher and lower than 90%) | 3 (Herbicidal ratio of 40% or higher and lower than 70%) | 4 (Herbicidal ratio of 70% or higher and lower than 90%) | 5 (Herbicidal ratio of 90% or more (almost completely withered)) | 5 (Herbicidal ratio of 90% or more (almost completely withered)) | 4 (Herbicidal ratio of 70% or higher and lower than 90%) | 5 (Herbicidal ratio of 90% or more (almost completely withered))
CON=C(CC1CC(O)=C(c2c(C)cc(C)cc2C)C1=O)C1CCCCC1 (stereo not drawn) [1-085] | 0 (Herbicidal ratio of 5% or lower (almost no effect)) | 3 (Herbicidal ratio of 40% or higher and lower than 70%) | 0 (Herbicidal ratio of 5% or lower (almost no effect)) | 5 (Herbicidal ratio of 90% or more (almost completely withered)) | 0 (Herbicidal ratio of 5% or lower (almost no effect)) | 3 (Herbicidal ratio of 40% or higher and lower than 70%) | 0 (Herbicidal ratio of 5% or lower (almost no effect)) | 1 (Herbicidal ratio of 5% or higher and lower than 20%) | 3 (Herbicidal ratio of 40% or higher and lower than 70%) | 0 (Herbicidal ratio of 5% or lower (almost no effect)) | 5 (Herbicidal ratio of 90% or more (almost completely withered)) | 0 (Herbicidal ratio of 5% or lower (almost no effect)) | 0 (Herbicidal ratio of 5% or lower (almost no effect)) | 0 (Herbicidal ratio of 5% or lower (almost no effect)) | 5 (Herbicidal ratio of 90% or more (almost completely withered)) | 3 (Herbicidal ratio of 40% or higher and lower than 70%) | 0 (Herbicidal ratio of 5% or lower (almost no effect)) | 5 (Herbicidal ratio of 90% or more (almost completely withered))
